pEC50, pIC50: −log10 of the molar value.
What was measured:
CYP3A4 = target: T1, CYP3A4 (Homo sapiens, UniProt P08684); assay: P450-Glo assay, CYP3A4; type: in vitro ADME
T1 construct: purchased Promega
From the text: In order to evaluate excretion, we examined the effect on the activity of two cytochrome P-450 isoforms. Inhibition of their activity may lead to the occurrence of drug–drug interactions.

5-HT7 [1] = target: T2, 5-HT7 (Homo sapiens, UniProt P34969); assay: Functional cAMP assay (LANCE Ultra), 5-HT7; type: cell-based
T2 construct: expressed in transfected cells; host or cells: HEK293
T2 sequence (P34969 whole entry, species assumed): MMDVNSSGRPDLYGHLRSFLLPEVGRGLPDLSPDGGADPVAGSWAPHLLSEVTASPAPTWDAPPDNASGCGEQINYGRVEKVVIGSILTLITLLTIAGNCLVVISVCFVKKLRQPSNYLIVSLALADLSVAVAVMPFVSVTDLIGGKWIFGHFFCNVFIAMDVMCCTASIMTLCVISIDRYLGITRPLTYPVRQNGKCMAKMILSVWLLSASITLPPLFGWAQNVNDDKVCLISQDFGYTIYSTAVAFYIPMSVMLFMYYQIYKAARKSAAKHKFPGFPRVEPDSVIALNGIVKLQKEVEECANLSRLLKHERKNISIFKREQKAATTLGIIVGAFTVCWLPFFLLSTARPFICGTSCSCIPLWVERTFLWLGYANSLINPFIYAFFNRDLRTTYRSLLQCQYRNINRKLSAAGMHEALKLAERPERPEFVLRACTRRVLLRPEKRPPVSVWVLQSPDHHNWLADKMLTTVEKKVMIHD
Description: (§1) Their functional activity was also evaluated by assessing their ability to inhibit agonist-induced cAMP production in HEK293 cells (Table 3). Extended radioisotope tests were aimed at detecting potential affinity for other aminergic receptors, whose role in cancer treatment may be important. Functions were tested for all receptors. The essence of functional tests results from the fact that serotonin stimulates tumor progression. Therefore, the ligand should have the potential to reduce its concentration, i.e., act as an antagonist.[39]
(§2) The detailed procedure is presented in previous publications.[53] The functional activity of the compounds was assessed using the LANCE Ultra cAMP detection kit (PerkinElmer). […] For other receptors (5-HT7R, 5-HT1AR, and 5-HT6R), 5-CT was used at 10, 100, and 1000 nM, respectively. Each compound was tested in triplicate across eight concentrations. The inhibitory constant (Kb) for each antagonist was calculated using the Cheng–Prusoff equation.

Danio rerio [2] = details: in vivo
Description: Two compounds, PP 10 and PP 15, were tested for cardiotoxicity in the Danio rerio experimental model (OECD 236 test). […]. To assess potential neurotoxic effects, locomotor activity was examined in the Danio rerio model. Zebrafish larvae’s response to light and dark transitions serves as a useful method for detecting neurotoxicity. […] In our experiment, we switched from light to dark conditions, as zebrafish larvae are known to avoid light and seek darker areas. This behavior helps them evade predators and maintain ideal environmental conditions. […]
Figure 5 A: In vivo toxicity assessment of PP 10 and PP 15 in Danio rerio using the maximum tolerated concentration (MTC) toxicity test. B: Locomotor activity under light conditions, quantified as the distance (in cm) traveled per minute by 5-day postfertilization (dpf) Danio rerio larvae. C: Locomotor activity under dark conditions, with the distance (in cm) traveled per minute recorded for 5-dpf larvae. D: Comparison of activity during the transition from light to dark conditions. E3 refers to the fish embryo growth medium. […]
A locomotor activity test was conducted on zebrafish larvae ([…]). […] The distance traveled by the larvae was measured in both light and dark conditions using EthoVision XT15 software, and the mean distance per minute was calculated for each condition to assess locomotor activity. […]

D2 = target: T3, D2 (Homo sapiens, UniProt P14416); assay: Functional cAMP assay (LANCE Ultra), D2; type: cell-based; details: Table 3, unit inferred, antagonist mode, 10 nM dopamine
T3 construct: expressed in transfected cells; host or cells: HEK293
T3 sequence (P14416 whole entry): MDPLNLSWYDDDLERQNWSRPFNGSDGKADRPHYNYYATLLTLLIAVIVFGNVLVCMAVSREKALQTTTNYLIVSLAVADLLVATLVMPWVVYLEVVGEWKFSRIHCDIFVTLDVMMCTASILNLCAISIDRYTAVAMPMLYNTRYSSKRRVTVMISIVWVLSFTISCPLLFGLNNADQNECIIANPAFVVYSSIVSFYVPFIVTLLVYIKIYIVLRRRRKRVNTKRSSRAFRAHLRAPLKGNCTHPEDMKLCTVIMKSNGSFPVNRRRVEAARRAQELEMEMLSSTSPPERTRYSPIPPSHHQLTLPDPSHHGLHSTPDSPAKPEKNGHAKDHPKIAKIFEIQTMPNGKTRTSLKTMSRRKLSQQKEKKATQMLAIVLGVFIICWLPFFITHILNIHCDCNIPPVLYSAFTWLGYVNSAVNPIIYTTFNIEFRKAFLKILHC
Description: as §1, §2

Danio rerio [3] = assay: Fish embryo toxicity test (OECD 236); type: in vivo; details: Danio rerio embryos, 96 h of exposure
Description: Two compounds, PP 10 and PP 15, were tested for cardiotoxicity in the Danio rerio experimental model (OECD 236 test). […] To assess potential neurotoxic effects, locomotor activity was examined in the Danio rerio model. Zebrafish larvae’s response to light and dark transitions serves as a useful method for detecting neurotoxicity. […] In our experiment, we switched from light to dark conditions, as zebrafish larvae are known to avoid light and seek darker areas. This behavior helps them evade predators and maintain ideal environmental conditions.
Figure 4 A: Toxicity of PP 10 and PP 15in vivo in the Danio reiro embryo toxicity test. […] Cardiotoxicity of compounds B: PP 10 and C: PP 15 was evaluated by measuring the heart rate (beats per minute) in 5-dpf Danio rerio larvae, maintained in the E3 fish embryo growth medium. Statistical analysis was performed using GraphPad Prism 10.0.0, with one-way ANOVA followed by Dunnett’s comparison test (*p < 0.05, compared to the negative control E3).
The toxicity of compounds was evaluated using two tests: the fish embryo toxicity (FET) test and neurotoxicity assessment.[53] […] Acute toxicity was assessed by monitoring signs such as coagulation of fertilized eggs, somite formation absence, tailbud separation, and lack of heartbeat. The LD50 value was calculated, and cardiovascular effects were monitored through heartbeat observations.

5-HT7 [4] = target: T2, 5-HT7; assay: Functional cAMP assay (LANCE Ultra), 5-HT7; type: cell-based; details: Table 3, unit inferred, agonist mode
cancer cell lines = assay: Antiproliferative activity over the tested cancer cell lines; type: cell-based; details: Homo sapiens; range or bound over several cell lines
Description: The chosen group of ligands was further examined for their ability to inhibit proliferation across multiple cancer cell lines related to the CNS system (1321N1, U87MG, LN-229, and U-251). These cell lines were characterized by different mutation profiles, the main one being the variable status of the p53 protein. In detail, U87MG cells have a wild-type p53 protein, while astrocytoma and the rest of GBM cells harbor mutated p53 protein. Additional assays were performed on MCF7 breast cancer and AsPC-1 pancreatic cancer cells. The wide range of tested lines was aimed at screening the anticancer potential of the tested compounds. The first represents one of the most common and the second one of the most aggressive cancers in the world. Comparing the activity of compounds on GBM cells to other types of cancer may reveal their selectivity and usefulness in targeted therapies. The cytotoxicity of the compounds on normal human astrocytes (NHA) and Feline catus astrocyte (PG-4) was determined. Tests on normal lines serve to verify the potential toxicity of the tested compounds on healthy cells. Due to the targeting of CNS tumors, astrocytes were selected as normal lines.
The detailed procedure is presented in previous publications.[53] […] Cell viability was assessed using the MTS assay, and the inhibitory concentration (IC50) was calculated using GraphPad Prism 8.0. […]

T1 sequence (P08684 whole entry): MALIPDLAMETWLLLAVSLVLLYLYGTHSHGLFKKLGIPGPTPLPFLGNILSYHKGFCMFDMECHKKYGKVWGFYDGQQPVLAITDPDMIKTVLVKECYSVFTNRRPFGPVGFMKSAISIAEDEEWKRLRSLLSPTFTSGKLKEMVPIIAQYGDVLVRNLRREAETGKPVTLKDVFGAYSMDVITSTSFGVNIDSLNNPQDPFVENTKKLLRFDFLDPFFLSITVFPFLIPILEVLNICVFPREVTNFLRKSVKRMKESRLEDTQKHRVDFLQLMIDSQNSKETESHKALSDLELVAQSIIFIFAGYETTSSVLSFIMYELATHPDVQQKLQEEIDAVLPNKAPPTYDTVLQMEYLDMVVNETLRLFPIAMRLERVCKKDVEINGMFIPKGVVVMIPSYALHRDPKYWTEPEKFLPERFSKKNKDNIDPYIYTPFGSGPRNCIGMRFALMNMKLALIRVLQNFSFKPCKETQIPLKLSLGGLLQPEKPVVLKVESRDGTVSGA

| Compound | impact on the activity of CYP3A4 (CYP3A4) | Kb (5-HT7 [1]; Table 3, unit inferred, cAMP, antagonist mode, 5-CT) [nM] | function at 5-HT7 (5-HT7 [1]; in words) | neurotoxic effects (locomotor activity, light to dark) (Danio rerio [2]) | Kb (D2) [nM] | LD50 / LC50 (Figure 4) (Danio rerio [3]) [µg/mL] | pEC50 (5-HT7 [4]) | pIC50 (cancer cell lines) |
| --- | --- | --- | --- | --- | --- | --- | --- | --- |
| CC1NC(NCCCCCCNS(=O)(=O)c2cccc3ccccc23)=Nc2ccccc21 (stereo not drawn) [PP 10, N-{6-[(4-Methyl-3,4-dihydroquinazolin-2-yl)amino]hexyl}naphthalene-1-sulfonamide] | weakest interaction | 236 | antagonist | minimal neurotoxic effects | 1810 | 15.34 |  |  |
| CC1NC(NCCCCCCNS(=O)(=O)c2c(Cl)ccc3ccccc23)=Nc2ccccc21 (stereo not drawn) [PP 13, 2-Chloro-N-{6-[(4-methyl-3,4-dihydroquinazolin-2-yl)amino]hexyl}naphthalene-1-sulfonamide] |  |  |  |  | 858 |  | 7.28 |  |
| O=S(=O)(NCCCCCCNc1ncc2ccccc2n1)c1cccc2ccccc12 [PP 15, N-{6-[(Quinazolin-2-yl)amino]hexyl}naphthalene-1-sulfonamide] | passive |  |  | minimal neurotoxic effects |  | 2.147 |  |  |
| O=S1(=O)c2cccc3cccc(c23)N1CCCCCCNC1=Nc2ccccc2CN1 [PP 24, 3-{6-[(3,4-Dihydroquinazolin-2-yl)amino]hexyl}-2λ^6-thia-3-azatricyclo[6.3.1.0^4,^12]dodeca-1(11),4(12),5,7,9-pentaene-2,2-dione] |  |  |  |  |  |  |  | 4.74 to 5.13 |

Reference: paper PMC11866022, “Long-Chain Cyclic Arylguanidines as Multifunctional Serotonin Receptor Ligands with Antiproliferative Activity” (ACS Omega, 2025)
